The record followed here is PubChem BioAssay AID179 (DTP/NCI, 2004).

This assay has as its system CEM cells HIV-1 protection, formazan growth assay. Kind of assay: NCI AIDS Antiviral Assay. The conditions noted are these: for IC50: measured here: growth of uninfected CEM cells. The procedure, abridged:
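Screen of anti-HIV-1 activity in human CEM cells using a formazan-based growth measurement at five drug concentrations. Hits with 50% or greater protection were repeated, and confirmation required reproducible complete protection.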

The source made the active and inactive calls.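 Rule for the calls: active = compounds giving half or more protection of infected cells from virus-caused growth loss, again on retest; inactive = the rest.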

`COc1cc(N=Nc2cc(S(=O)(=O)O)cc3cc(S(=O)(=O)O)cc(O)c23)c(C)cc1N=Nc1c(S(=O)(=O)O)cc2cc(Nc3ccccc3)ccc2c1O`: the outcome was inactive.

In the case of `COC(=O)C1CC(C=[N+](C)C)=C(SC)N1C(=O)OCc1ccccc1` (stereo not given), the EC50 was above 200 µM and the IC50 was found to be 191 µM.

Regarding `CN(C)CC1CCC(CN(C)C)C1=NO` (stereo not given), the result was inactive.

For `O=C(CCc1ccc(O)cc1)NCCc1ccc(O)cc1`, the EC50 is 38.9 µM and the IC50 worked out at 166 µM.

In the case of `O=C(CC1C(=O)Nc2ccccc2S1=O)Nc1cccc(Cl)c1` (stereo not given), the EC50 is above 20.9 µM and the IC50 is above 20.9 µM.

`BrC1CCCCCC(Br)C12OCCO2` (stereo not given): the EC50 is above 57.5 µM and the IC50 was above 57.5 µM.

Turning to `Cc1cc2c(cc1Cl)SC(NNc1ccc([N+](=O)[O-])cc1)=NS2(=O)=O`, the result was inactive.

As for `[CH3][Ga]([CH3])[n]1cccn1`, the EC50 was above 562 µM and the IC50 worked out at 74.1 µM.

In the case of `COC(=O)C(=O)c1cc2ccccc2n1S(=O)(=O)c1ccccc1`, the EC50 was above 200 µM and the IC50 is above 200 µM.

Take `CC1CC[C@H]2[C@@H]1[C@H]1[C@@H](CC[C@@]23CCc2ccccc2O3)C1(C)C` (stereo not given in full): the EC50 was above 11.5 µM and the IC50 was above 11.5 µM.

Turning to `CC(CC(=O)N(C)[C@H](C[C@@H](C)C(Cl)(Cl)Cl)c1nccs1)C(Cl)Cl` (stereo not given in full), the result was inactive.

For the compound `N.N.N.N.N.O=S(=O)([O-])S(=O)(=O)[O-].[Co+3]`, the EC50 is above 42.7 µM and the IC50 was above 42.7 µM.

As to `O=[N+]([O-])c1ccc(S(=O)(=O)c2ccccc2)c([N+](=O)[O-])c1`, the outcome was inactive.

Regarding `CCOC(=O)Nc1cc(C)c(NC(=O)CN(CC)CC)c(C)c1`, the EC50 is above 200 µM and the IC50 is above 200 µM.

Turning to `CCOC(=O)c1c2ccccc2n2c(=O)n(C)nnc12`, the EC50 is above 200 µM and the IC50 is above 200 µM.

`CN(C)CCNC(=O)Cn1ccc(=O)c2c([N+](=O)[O-])cccc21`: the EC50 was above 200 µM and the concentration for half-maximal inhibition (IC50) is above 200 µM.

`CCOC(=O)c1cc2c(nc1NCc1ccccc1)C(=O)CCCC2`: the EC50 was above 200 µM and the IC50 turned out to be 19.1 µM.

For `Cc1c(Cl)cccc1NC(=O)/C(Cl)=C(\Cl)C(=O)O`, the result was inactive.

For the compound `CC1(C)OC([C@H](O)CO)C([C@H]2NCCS2)O1` (stereo not given in full), the EC50 is above 200 µM and the IC50 was above 200 µM.

With `Cc1ccc(S(=O)(=O)c2[nH]cc(-c3c[nH]c(S(=O)(=O)c4ccc(C)cc4)c3C3CCCCC3)c2C2CCCCC2)cc1`, the result was inactive.

With `Cn1c(=O)c2c3oc(=O)cc(O)c3c(=O)n3c4ccccc4n(c1=O)c23`, the EC50 was above 2.14 µM and the IC50 is above 2.14 µM.

As for `CCOC(=O)/C(=C/c1ccncc1)C(=O)c1ccccc1`, the EC50 was above 129 µM and the IC50 was above 129 µM.

As to `COCC(O)COn1c(=O)c(C#N)[n+]([O-])c2ccccc21` (stereo not given), the EC50 was above 200 µM and the IC50 amounted to 30.2 µM.

On to `CCCn1ccc(=O)c(O)c1C`, for which the EC50 was above 200 µM and the IC50 is 35.5 µM.

For `CCCC(S(=O)(=O)c1ccccc1)S(=O)(=O)c1ccccc1`, the result was inactive.

In the case of `CCOC(=O)CCc1ccc(NC(=O)/C=C/c2ccc([N+](=O)[O-])o2)cc1`, the EC50 was above 200 µM and the IC50 was found to be 0.372 µM.

In the case of `COc1cccc(NC(=O)CC(=O)N2N=C(C)C(N=Nc3ccc(S(=O)(=O)CCOS(=O)(=O)O)cc3)C2=O)c1` (stereo not given), the EC50 was above 200 µM and the IC50 turned out to be 3.02 µM.

As for `c1cc(C[S+]2CCCC2)oc1C[S+]1CCCC1`, the EC50 is above 200 µM and the IC50 came out at 102 µM.

`CC#CCCC1CCCCN(C(=O)OC(C)(C)C)C1OCC` (stereo not given): the EC50 was above 115 µM and the IC50 is 58.9 µM.

Consider `CCOP(=O)(OCC)C(C(=O)OC)C(=O)C(=O)Nc1cccc([N+](=O)[O-])c1` (stereo not given), for which the EC50 is above 617 µM and the IC50 was above 617 µM.

`O=C1[C@@H]2[C@@H](CN3CN(c4ccccc4)N=C(c4ccccc4)[C@@]23c2ccccc2)C(=O)N1c1ccccc1`: the EC50 is above 20 µM and the IC50 was 2.95 µM.

For `CC(=O)N1C2=CCCC2(C)c2ccccc21` (stereo not given), the EC50 was above 200 µM and the IC50 worked out at 56.2 µM.

On to `O=C(O)CCCCCCCCCCCCl`, for which the EC50 was above 200 µM and the IC50 came to 91.2 µM.

In the case of `O=C(C(=Cn1c(=O)cc[nH]c1=S)C(=O)c1ccccc1)c1ccccc1`, the result was inactive.

Consider `CN1NC(=O)SC(=O)c2ccccc2C1=O`, for which the result was inactive.

For the compound `O=S(=O)(/C=C/CS(=O)(=O)c1ccccc1)c1ccccc1`, the result was inactive.

As for `CN(C)c1ccc(/C=C(\C#N)c2ccccc2)cc1`, the EC50 is above 5.89 µM.

For the compound `O=S(=O)(SC(S(=O)(=O)c1ccccc1)S(=O)(=O)c1ccccc1)c1ccccc1`, the EC50 was above 537 µM and the IC50 turned out to be 355 µM.

Take `O=C(O)c1ccc(CS(=O)c2ccccc2C(=O)O)c([N+](=O)[O-])c1` (stereo not given): the EC50 was above 708 µM and the IC50 is above 708 µM.

Regarding `NNC(=O)/C(NC(=O)c1ccccc1)=C(\N)c1cccc([N+](=O)[O-])c1`, the EC50 is above 15.1 µM and the IC50 is above 15.1 µM.

With `C=CCNC(=O)NCCCCC(NC(C)=O)C(=O)NCc1ccccc1` (stereo not given), the EC50 is above 692 µM and the half-maximal inhibitory concentration (IC50) is above 692 µM.

Regarding `CC(=O)OC1COC(Nc2nc(NCc3ccccc3)n(C)c(=O)c2N=O)C(OC(C)=O)C1OC(C)=O` (stereo not given), the EC50 was above 200 µM and the IC50 is above 200 µM.

With `C(#CP(c1ccccc1)c1ccccc1)P(C#CP(c1ccccc1)c1ccccc1)c1ccccc1`, the result was inactive.

Regarding `O=C1/C(=C/c2cccc(Br)c2)Cc2ccccc21`, the EC50 is above 200 µM and the IC50 was found to be 17 µM.

Take `Cc1nc2ccccc2c(=O)n1NC(=O)c1ccccn1`: the EC50 is above 200 µM and the IC50 was above 200 µM.

As to `CC(=O)Nc1c(S(=O)(=O)c2ccccc2)c(C)c(C)n1Cc1ccccc1`, the EC50 was above 200 µM and the 50% inhibitory concentration (IC50) was found to be 132 µM.

Take `CCN(CC)c1c(C(=O)/C=C/c2ccc(F)cc2)c(-c2ccccc2)nn(C)c1=O`: the EC50 is above 33.9 µM and the IC50 was 7.24 µM.

For `COc1cc(C)cc(C(=O)OCc2ccccc2)c1C1=C(Cl)C(=O)C(Cl)=CC1=O`, the EC50 was above 52.5 µM and the 50% inhibitory concentration (IC50) stood at 8.51 µM.

Regarding `NNC(=S)NC1CC(c2ccccc2)Oc2ccccc21` (stereo not given), the result was inactive.

Turning to `c1ccc(NNC2=NCCN2)cc1`, the EC50 is above 200 µM and the IC50 is 55 µM.

As for `O=C(O)CCCCCCCCCC(=O)O`, the EC50 is above 794 µM and the IC50 was above 794 µM.

Turning to `CCOC(=O)/C(=C/c1ccccc1)C(=O)c1ccccc1`, the EC50 is above 25.7 µM and the half-inhibitory concentration (IC50) was determined as 20 µM.

On to `COC(=O)c1ccccc1SSCCN`, for which the EC50 is above 200 µM and the concentration for half-maximal inhibition (IC50) worked out at 19.1 µM.

Consider `C[Si]1(C)CCCSC1`, for which the EC50 is above 200 µM and the IC50 was above 200 µM.

Take `NC(CSS(=O)(=O)O)=NCCSS(=O)(=O)O`: the EC50 was above 200 µM and the IC50 is 110 µM.

Consider `CCOC(=O)c1nc2ccc(C(F)(F)F)cc2nc1NCc1ccc(OC)c(OC)c1`, for which the EC50 was above 200 µM and the IC50 worked out at 85.1 µM.

For `CCN(CC)C(=O)C1(C)NS(=O)(=O)c2ccccc2C1=O` (stereo not given), the EC50 was above 200 µM and the IC50 was above 200 µM.

For `CC1=C(C)SC(=C2Sc3c(n(C)c(=O)[nH]c3=O)S2)S1`, the EC50 was above 200 µM and the IC50 was above 200 µM.

Take `c1ccc(CN2COc3c(ccc4ccccc34)C2)cc1`: the EC50 is above 200 µM and the IC50 is 55 µM.

For the compound `CNC(=O)OCC1=CC(=O)C=C(OC)C1=O`, the EC50 is above 550 µM and the IC50 amounted to 11 µM.

On to `CN(C)C(=C1c2cc([N+](=O)[O-])ccc2-c2ccc([N+](=O)[O-])cc21)N(C)C`, for which the EC50 is above 200 µM and the IC50 is 10.7 µM.

Take `COC(=O)C1(C2CCOC2=O)NCCc2c1[nH]c1ccccc21` (stereo not given): the EC50 was above 245 µM and the IC50 came out at 141 µM.

Regarding `C=CC1=CSNN1`, the EC50 was above 437 µM and the IC50 worked out at 347 µM.

For the compound `Cc1cc(NC(=O)c2ccc(N=Nc3c(S(=O)(=O)O)cc4cc(NC(=O)c5ccc(N)cc5)ccc4c3O)cc2)ccc1N=Nc1ccc2cc(S(=O)(=O)O)cc(S(=O)(=O)O)c2c1`, the result was active.

Consider `O=C(CCCn1ccnc1[N+](=O)[O-])NCCn1ccnc1`, for which the result was inactive.

For the compound `C=C[C@]1(C)CC(=O)C(C(C)C=O)[C@]12C(=O)Oc1cccc(C)c1C2=O` (stereo not given in full), the EC50 is above 200 µM and the IC50 is 13.5 µM.

`Cc1cc(=O)n(-c2ccccc2)c(=O)n1-c1nc2ccccc2[nH]1`: the EC50 is above 112 µM and the IC50 was 64.6 µM.

Regarding `ClC/C=C\C[N+]12CN3CN(CN(C3)C1)C2`, the EC50 was above 200 µM and the IC50 worked out at 24 µM.

Regarding `COC(=O)/C=C(C)/C=C\COC1CCCCO1` (stereo not given), the EC50 was above 200 µM and the concentration for half-maximal inhibition (IC50) was above 200 µM.

As to `O=C1/C(=C/c2ccccc2)CCCc2ccccc21`, the EC50 was above 200 µM and the IC50 came to 21.4 µM.

For the compound `CC1(C)CC(=O)C(CC2C(=O)CCCC2=O)C(=O)C1`, the EC50 is above 955 µM and the IC50 was found to be 891 µM.

For the compound `COc1cc(OC)c(/C=C\c2nccc3ccccc23)c(OC)c1`, the EC50 is above 200 µM and the IC50 was found to be 13.8 µM.

Consider `N=C(N)c1ccc(NC(=O)c2ccc(C(=O)Nc3ccc(C(=N)N)cc3)c(N)c2)cc1`, for which the EC50 was 53.7 µM and the half-maximal inhibitory concentration (IC50) was above 200 µM.

As for `CC(=O)NC1CC2Oc3ccc(C)cc3C(C)(O2)C1O` (stereo not given), the result was inactive.

In the case of `Nc1ccc(O)c(C(=O)[O][Sn]([c]2ccccc2)([c]2ccccc2)[c]2ccccc2)c1`, the EC50 is above 2 µM and the IC50 was 0.129 µM.

Consider `CC(C)=CCC/C(C)=C/CCC(C)/C=C/C(=O)NC[C@@H]1CC[N@+]2(C)CCCC[C@H]12` (stereo not given in full), for which the EC50 is above 501 µM and the IC50 is 23.4 µM.

The term EC50 denotes the concentration giving half of the maximal effect. A word on the IC50: it is the concentration that gives 50% inhibition. The low end stands for inhibition by little substance, the high end for a need for much substance.
